Experimental findings from paper PMC10458458, “Characterization of Anticancer Effects of the Analogs of DJ4, a Novel Selective Inhibitor of ROCK and MRCK Kinases” (Pharmaceuticals, 2023) are described below.

The test system of assay [1] is MDA-MB-231 breast cancer cells. The assay is described as follows: Caspase 3/7 assay (Muse). To be noted: MDA-MB-231, 2.5 µM, 48 h (DMSO 6.2). Type of assay: cell-based, human. The protocol: Figure 8 DJ4 analogs induce cell cycle arrest and apoptotic cell death in MDA-MB-231 breast cancer cells. (A) DJ4 analogs induce cell cycle arrest in MDA-MB-231 breast cancer cells. To study the cell cycle arrest by DJ4 analogs, serum-starved cell cycle-synchronized MDA-MB-231 cells were treated with 2.5 µM concentration of each compound for 24 h and stained with propidium iodide. Treatment with all the analogs, except DJ-Morpholine, induced significant arrest of cells in G2/M phase of cell cycle. (B) Apoptotic cell death by DJ4 analogs was evaluated by measuring caspase 3/7 activation in breast cancer cells. Cells were treated with 2.5 µM concentration of each compound for 48 h and incubated with fluorescent dye. All the compounds except DJ-Morpholine induced significant apoptotic cell death. TEXT PRINTED IN THE PICTURE: (A) DMSO: G1 : 48.40%; S : 44%; G2/M: 7.60% | (A) DJ4: G1 : 27.41%; S : 38.58%; G2/M: 34.01% | (A) DJ-Allyl: G1 : 15.94%; S : 55.51%; G2/M: 28.54% | (A) DJE4: G1 : 19.14%; S : 58.48%; G2/M: 22.37% | (A) DJ110: G1 : 19.16%; S : 38.39%; G2/M: 42.51% | (A) DJ-Morpholine: G1 : 43.16%; S : 51.10%; G2/M: 5.74% | (B) DMSO: Dead 3.10 %; Apoptotic/Dead 4.40 %; 6.2; 1.75 % Apoptotic | (B) DJ4: Dead 5.45 %; Apoptotic/Dead 36.80 %; 52.9; 41.65 % Live; 16.10 % Apoptotic | (B) DJ-Allyl: Dead 3.05 %; Apoptotic/Dead 9.90 %; 18.1; 78.90 % Live; 8.15 % Apoptotic | (B) DJE4: Dead 1.85 %; Apoptotic/Dead 8.15 %; 13.4; 84.75 % Live; 5.25 % Apoptotic | (B) DJ110: Dead 9.05 %; Apoptotic/Dead 56.60 %; 64.4; 26.60 % Live; 7.75 % Apoptotic | (B) DJ-Morpholine: Dead 1.90 %; Apoptotic/Dead 5.00 %; 8.0; 90.10 % Live; 3.00 % Apoptotic DOUBTS OF THE COPYIST ABOUT THIS PICTURE: Panel A: the print is very small and blurred, so 3, 5, 6, 8 and 9 cannot be told apart with certainty in any of its values / A, DMSO: G1 48.40% or 46.40%; S 44% (a decimal part may be hidden); G2/M 7.60% or 7.80% / A, DJ4: G1 27.41%; S 38.58% or 38.98%; G2/M 34.01% uncertain / A, DJ-Allyl: G1 15.94%; S 55.51% or 53.51%; G2/M 28.54% or 26.54% uncertain / A, DJE4: G1 19.14%; S 58.48% or 58.46%; G2/M 22.37% uncertain / A, DJ110: G1 19.16% or 19.18%; S 38.39% or 38.33%; G2/M 42.51% uncertain / A, DJ-Morpholine: G1 43.16%; S 51.10%; G2/M 5.74% uncertain / B, DMSO, Live: the value is hidden by data points (only '.75 %' can be read, perhaps 90.75 or 89.75), so it is left out / B, DJ4, Live: partly hidden by data points, 41.65 is the best reading / B, DJ-Allyl, Live: partly hidden by data points, 78.90 or 76.90 / B, DJE4, Live: partly hidden by data points, 84.75 or 64.75 / B, DJ110, Live: partly hidden by data points, 26.60 or 28.60 / B, DJ-Morpholine, Live: partly hidden by data points, 90.10 or 20.10 / B: the large bold numbers (6.2, 52.9, 18.1, 13.4, 64.4, 8.0) are printed with no measure or unit
To determine whether the active analogs induce apoptotic cell death similar to the DJ4 parent compound, we treated MDA-MB-231 breast cancer cells with 2.5 µM concentration of all the analogs for 48 h (Figure 8). The cells were then analyzed for activation of caspase 3/7 (a marker for apoptotic cell death) and propidium iodide (a marker of cell membrane integrity) using the Muse^TM (EMD Millipore) two color bench-top flow cytometer. […]
To examine whether the selected compounds induce apoptosis, we treated MDA-MB-231 breast cancer cells with 5 µM of each compound. […] The data were quantified by using FlowJo software (version 10).

In assay [2] the test system is NCI-60 human cancer cell line panel. In words: NCI-60 single concentration screen, whole panel. Type of assay: cell-based. The note with it: single concentration 10 µM. The source says:
The selected active compounds were screened at NCI, as a part of In Vitro Cell Line Screening Project (IVCLSP), for their effect on cell growth in 60 different cancer cell lines. The 60 human cancer cell line panel included leukemia, melanoma, non-small cell lung cancer, colon, central nervous system (CNS), ovarian, renal, prostate, and breast cancer cell lines. The detailed procedure and applications of NCI-60 cell line screening can be found at https://dtp.cancer.gov/discovery_development/nci-60/default.htm (accessed on 9 January 2023). Briefly, cells were plated in 96-well plates and incubated for 24 h. One set of cells was fixed with trichloroacetic acid at time 0 h (Tz), and SRB (sulphorhodamine B) assays were performed to quantify the cells. The remaining set of cells were treated with 10 µM single concentration of each compound and incubated for 48 h (Te) after which the cells were fixed, and the SRB assays were performed. Data are presented as percent growth relative to the control as 100% according to the following calculations:
When Te >/= Tz. Growth(%)=Te−Tz/C−Tz∗100 and when Te < Tz. (1) Growth(%)=Te−Tz/Tz∗100
Values between 0–100 indicate cell growth, zero (0) indicates no cell growth, values < 0 indicate cell death.

With `O=C1N/C(=N\CCc2ccccc2)S/C1=C/c1c[nH]c2ncccc12` [DJ4], the “apoptosis (Q2 + Q3), caspase 3/7” value in assay [1] is listed as 52.9%.
In the case of `O=C1N/C(=N\Cc2ccccc2)S/C1=C/c1c[nH]c2ncccc12` [DJ110], in assay [1], the “apoptosis (Q2 + Q3), caspase 3/7” value is 64.4%. Also, the “effectiveness in NCI-60 screening” value in assay [2] is given as “ineffective”.
For `C=CC/N=C1\NC(=O)/C(=C\c2c[nH]c3ncccc23)S1` [DJ-Allyl], the “apoptosis (Q2 + Q3), caspase 3/7” value in assay [1] was 18.1%.
Regarding `O=C1N/C(=N\CCN2CCOCC2)S/C1=C/c1c[nH]c2ncccc12` [DJ-Morpholine], the “apoptosis (Q2 + Q3), caspase 3/7” value in assay [1] stood at 8%. In assay [2], the “effectiveness in NCI-60 screening” value is “ineffective”.
In the case of `CC/N=C1\NC(=O)/C(=C\c2c[nH]c3ncccc23)S1` [DJE4], the “apoptosis (Q2 + Q3), caspase 3/7” value in assay [1] came to 13.4%.
